The experiment has as its system GM3 expression in C32 human melanoma cells. Description: GM3 fluorescent-linked immunosorbent assay (FLISA), C32 cells. In kind it is cell-based. The note with it: 48 hours. An excerpt:
Inhibition of glucosylceramide synthase activity can be measured with one or more assays. A first assay is a microsomal assay that directly measures the conversion of ceramide to glucosylceramide by HPLC. Microsomes are a source of glucosylceramide synthase activity in the microsomal assay. A second assay is a cell based, phenotypic assay that monitors cell surface expression of the downstream lipid GM3 by antibody mediated immunofluorescence. Specific protocols are provided below.
This is a phenotypic assay that measures GM3 expression in B16 mouse melanoma or C32 human melanoma cells following treatment with test compounds. Cell surface GM3 expression is determined by antibody mediated fluorescence.
Compounds are diluted in media and plated in 384 well plates in DMSO. B16 and C32 cells are assayed at densities of 20,000 cells/ml and 62,500 cells/ml, respectively, per well. Each titration curve contains 10 points that are assayed in duplicate on each test run. The plates are incubated for 48 hours at 37° C., 5% CO2, and are then washed once with TBS. Anti-GM3 antibody is added to each well and the plates are then incubated for an additional one hour at room temperature. Plates are subsequently washed twice and incubated for an additional hour with the labeled secondary antibody. Following the final incubation, the plates are washed twice and the fluorescence at λex=D640/20 nm and λem=657 nm is detected on a fluorescent reader.
The results of the microsomal assays are expressed as “GCS IC50”, which represents the concentration of the compound causing 50% inhibition of glucosylceramide synthase activity. The results of the cell-based assays are expressed as “GM3 B16 IC50” or “GM3 C32 IC50” for the B16 assay and the C32 assay, respectively. These values represent the concentration of the compound causing 50% inhibition of GM3 expression on the cell surface.

Structures are written as SMILES.

`CC(C)(NC(=O)O[C@@H]1CN2CCC1CC2)c1csc(-c2ccc(F)cc2)n1` [Compound 2, (S)-quinuclidin-3-yl 2-(2-(4-fluorophenyl)thiazol-4-yl)propan-2-ylcarbamate] returned an IC50 of 9.6 nM.

For orientation: IC50 means the concentration needed to halve the response being measured.

(Values after patent US20220016092A1, “METHODS FOR TREATING SYMPTOMS AND DISORDERS ASSOCIATED WITH LYSOSOMAL STORAGE DISEASES” (GENZYME CORPORATION, priority 2019, published 2022).)
